Test results: patent publication US20110311601A1, “ANTIMICROBIAL MEDICAL DEVICES” (priority 2010, published 2011)
“And” between values parts separate entries of the source, which are not always exact repeats. Equal entries are not always repeated. Where no end group is shown, it is not given here.

Legend:
[1] = tested on: Escherichia coli strain DB3.1; assay: micro-dilution assay of coated titanium pins and peptide controls (bacterial killing, CFU); assay type: cell-based
Description: In a first experiment 10 μg of hβD2 was coated to three different SAM Hexadecyltrimethoxysilane (SAM 1), Dimethoxymethyloctylsilane (SAM 2), and oxidized Allyltrimethoxysilane (SAM 3) of the modified titanium pins. The anti-bacterial activity of the hβD2-coated pins was tested by a micro-dilution assay. Therefore, Escherichia coli strain DB3.1 (Invitrogen, Cat. No. 11782-018) was used. E. coli was streaked from a glycerol stock onto a Brain Heart Infusion (BHI) agar plate (3.7% (w/v) BHI Bouillon, 1.5% (w/v) Agar), grown overnight at 37° C. and subsequently used to inoculate 40 ml of 3.7% (w/v) BHI Bouillon without any antibiotics in 100 ml flasks. Fresh cells were harvested by centrifugation at 16000 rpm for 10 min and washed twice with 10 mM sodium phosphate buffer, pH 7.2. The optical density was adjusted to 10^4 cells/ml. For anti-bacterial testing, a single pin coated with hβD2 was incubated in one well of a microtiter plate containing 100 μl of the bacterial suspension.
Functionalized titanium pins without hβD2 served as negative controls (SAM1-n, SAM2-n, SAM3-n, SAM4::Col-NHS-n, SAM4::Col-Glu-n). In addition, 5 independent control reactions consisting of hβD2 in a final amount of 0 (NC), 0.02 (PC1), 0.2 (PC2), 2 (PC3) and 10 (PC4) μg were examined in parallel. To determine the specificity of the anti-bacterial activity of hβD2, 10 μl (10 μg/ml in PBS) of polyclonal monospecific anti-hβD2 antibodies were co-incubated with 10 μg of hβD2 and bacterial cells (Table I, PC4/ab).
The microtiter plates were incubated for 2 h at 37° C. The kinetic studies were performed by replacing the bacterial suspension, after 2 h of cultivation with a freshly pre-cultured E. coli solution, which contained the same bacterial concentration, and cultivating for another 2 h and so on. Colony forming units (CFU) were determined after plating 100 μl of a 1:100 dilution of the bacterial suspension on petri dishes with BHI medium and incubating them overnight at 37° C. For every group of the functionalized titanium pins and the controls, 5 independent anti-bacterial assays were performed. A control (NC) of bacterial growth was examined for every independent assay. The number of CFU on the control (consisting of a single petri dish) was set to 0% bactericidal activity. The reduction in the CFU resulting from the anti-bacterial activity of hβD2 was related to the absolute CFU of the control within every independent assay. This value, given as a percentage of the bacterial “killing” activity, was used to describe the antibacterial activity. This kind of normalisation of the antibacterial data was performed for every experimental group.
To examine the release behavior of hβD2 that is adsorbed by different SAM modified titanium pins a time kinetic experiment was performed. The experiment was performed analogous to Example 2. For this experiment 80 μg of hβD2 was adsorbed to three different SAMs Hexadecyltrimethoxysilane (SAM1), Dimethoxymethyloctylsilane (SAM2), and oxidized Allyltrimethoxysilane (SAM3) of the modified titanium pins.
Since it is known that collagen has a positive impact on wound healing, functionalised titanium pins with collagen were investigated. Two different cross-linking strategies for collagen on SAM3 and SAM4 were applied as described in Example 1: (i) a covalently binding strategy with the NHS/EDC cross-linking system, and (ii) the use of glutaraldehyde. Successful binding of collagen was monitored by collagen-specific DirectRed staining (as described in Example 1). […] Additionally 80 μg hβD2 was adsorbed to collagen functionalized SAM3 and SAM4 modified titanium pins, respectively. For monitoring the antibacterial activity of the bio-coated pins the experiment was performed analogous to Example 3. […]

[2] = tested on: Escherichia coli strain DB3.1; assay: microdilution assay of hβD2 coated biopolymers (percentage killing); assay type: cell-based
Description: Microdilution assay. In the microdilution assay the microorganisms were exposed to a potential bio-active substance in liquid surrounding, thus free to move. This potential bio-active substance was either homogenously dispersed in the liquid surrounding by active mixing at the beginning of the tests or could spread out of the sample during incubation time. The bioactivity was measured in percentage killing, wherein the number of colony forming units (CFU) in a control without test substance was set to 0% killing and a reduction in the cell number to zero was set to 100% killing.
Fresh cells were harvested by centrifugation at 1600 rpm for 10 min, the supernatant was removed and the cell pellet was resuspended in 5 ml 10 mM sodium phosphate buffer. This procedure was repeated twice. The optical density was adjusted to OD600 of 0.500 with 10 mM sodium phosphate buffer. 100 μl of the bacterial suspension was pipetted in one well of a microtiter plate without optimized surface. 10 μl test substance or test sample was added. In case of a test substance, the mixture was homogenized by absorbing the mixture several times with a pipette. The microtiter plate is then closed with parafilm and incubated at 37° C. for 2 h. After incubation the substances in the wells were mixed by a pipette. […] For evaluation, the grown colonies were counted.
The microdilution assay facilitates the examination of the hβD2 release kinetics of the biopolymers and thus allowed conclusions on what amounts of hβD2 in which time could be released. For comparing on evaluation of the assay the effect of directly applied hβD2 amounts with the effect of hβD2 amounts applied on biopolymers, the achieved percentage killing of bacteria was compared to the killing rate of the hβD2 standard series in the microdilution assays.
The collagen scaffolds and polylactide matrices were examined in the microdilution assay regarding their hβD2 release kinetics. Since the incubation time of the samples in the bacterial suspension is limited, the samples were stored at −25° C. after the test and until completion of a further assay. The thawed samples were then used in a new assay and were incubated again.

Substance: human β-defensin-2 (GIGDPVTCLKSGAICHPVFCPRRYKQIGTCGLPGTKCCKKP; ends and bridges not checked; cysteine pairing not given here) [hβD2, recombinant hβD2]
- antmicrobial activity, bacterial killing [%] ([1]; control PC1: 0.02 μg rHuβD2, 2 h): 14.80 ± 2.78%
- antmicrobial activity, bacterial killing [%] ([1]; control PC2: 0.20 μg rHuβD2, 2 h): 32.38 ± 2.93%
- antmicrobial activity, bacterial killing [%] ([1]; control PC3: 2.00 μg rHuβD2, 2 h): 92.80 ± 3.91%
- antmicrobial activity, bacterial killing [%] ([1]; control PC4/ab: 10.00 μg rHuβD2 co-incubated with polyclonal anti-hβD2 antibodies, 2 h): 0%
- antmicrobial activity, bacterial killing [%] ([1]; control PC4: 10.00 μg rHuβD2, 2 h): 100%
- bacteria killing ([2]; 2 μg hβD2 on collagen scaffold, after 13 hours): 18%
- killing rate ([2]; 2 μg hβD2 on collagen scaffold, first 2 hours): ≤ 36%
- killing rate ([2]; 4 μg hβD2 and 5 μg chondroitin sulphate on collagen scaffold, 0-2 hours): 54%
- killing ([2]; 4 μg hβD2 and 20 μg spermidine on collagen scaffold, 0-2 hours): 19%
- killing rate ([2]; 4 μg hβD2 on collagen scaffold impregnated with 20 μl of 0.1 M L-glutamic acid solution, 0-2 hours): 53%
- killing rate ([2]; 4 μg hβD2 on collagen scaffold impregnated with 20 μl of 0.1 M L-lysine solution, 0-2 hours): 11%
- killing ([2]; 4 μg hβD2 on collagen scaffold pre-treated with 10 μl of 0.1% gelatine solution, 0-2 hours): 94%
- killing rate ([2]; 4 μg hβD2 on collagen scaffold treated with 5 μg BSA, 0-2 hours): 98%
- killing of the bacteria ([2]; 4 μg hβD2 on collagen scaffold treated with 5 μg HAS, 0-2 hours): 100%
- killing rate ([2]; 4 μg hβD2 on collagen scaffold treated with 60 μg poly-L-glutamic acid, 0-2 hours): 23%
- killing rate ([2]; 4 μg hβD2 on collagen scaffold without pre-treatment, first 2 hours): 89% and 86%
- killing ([2]; 4 μg hβD2 on collagen scaffold, 17th hour): 25%
- bio-activity of the scaffolds ([2]; 4 μg hβD2 on collagen scaffold, after 20 hours): depleted
- killing (given as release amount in %) ([2]; 4 μg hβD2 on collagen scaffold, first 5 hours): 38%
- bacteria killing ([2]; 25 μg hβD2 on polylactide matrix coated with collagen and chondroitin sulphate, first two hours): 89%
- bacteria killing ([2]; 25 μg hβD2 on polylactide matrix coated with collagen, first two hours): 100%
- bacteria killing ([2]; 25 μg hβD2 on uncoated polylactide matrix, first two hours): 100%
- killing ([2]; 30 μg hβD2 on collagen scaffold, after 13 hours): 29%
- killing rate ([2]; 30 μg hβD2 on collagen scaffold, after 17 hours): 22%
- activity of the scaffold ([2]; 30 μg hβD2 on collagen scaffold, after 20 hours): inactive
- killing rate ([2]; 30 μg hβD2 on collagen scaffold, first 5 hours): 86%
- killing (given as release amount in %) ([2]; 125 μg hβD2 on collagen scaffold, after 5 hours): 93%
